{"source": "the Kinase Knowledgebase extract (Sharma et al. 2016)", "data": [{"biological_target": "ROCK1;ROCK2 (UniProt O75116)", "sequence (O75116 whole entry, looked up)": "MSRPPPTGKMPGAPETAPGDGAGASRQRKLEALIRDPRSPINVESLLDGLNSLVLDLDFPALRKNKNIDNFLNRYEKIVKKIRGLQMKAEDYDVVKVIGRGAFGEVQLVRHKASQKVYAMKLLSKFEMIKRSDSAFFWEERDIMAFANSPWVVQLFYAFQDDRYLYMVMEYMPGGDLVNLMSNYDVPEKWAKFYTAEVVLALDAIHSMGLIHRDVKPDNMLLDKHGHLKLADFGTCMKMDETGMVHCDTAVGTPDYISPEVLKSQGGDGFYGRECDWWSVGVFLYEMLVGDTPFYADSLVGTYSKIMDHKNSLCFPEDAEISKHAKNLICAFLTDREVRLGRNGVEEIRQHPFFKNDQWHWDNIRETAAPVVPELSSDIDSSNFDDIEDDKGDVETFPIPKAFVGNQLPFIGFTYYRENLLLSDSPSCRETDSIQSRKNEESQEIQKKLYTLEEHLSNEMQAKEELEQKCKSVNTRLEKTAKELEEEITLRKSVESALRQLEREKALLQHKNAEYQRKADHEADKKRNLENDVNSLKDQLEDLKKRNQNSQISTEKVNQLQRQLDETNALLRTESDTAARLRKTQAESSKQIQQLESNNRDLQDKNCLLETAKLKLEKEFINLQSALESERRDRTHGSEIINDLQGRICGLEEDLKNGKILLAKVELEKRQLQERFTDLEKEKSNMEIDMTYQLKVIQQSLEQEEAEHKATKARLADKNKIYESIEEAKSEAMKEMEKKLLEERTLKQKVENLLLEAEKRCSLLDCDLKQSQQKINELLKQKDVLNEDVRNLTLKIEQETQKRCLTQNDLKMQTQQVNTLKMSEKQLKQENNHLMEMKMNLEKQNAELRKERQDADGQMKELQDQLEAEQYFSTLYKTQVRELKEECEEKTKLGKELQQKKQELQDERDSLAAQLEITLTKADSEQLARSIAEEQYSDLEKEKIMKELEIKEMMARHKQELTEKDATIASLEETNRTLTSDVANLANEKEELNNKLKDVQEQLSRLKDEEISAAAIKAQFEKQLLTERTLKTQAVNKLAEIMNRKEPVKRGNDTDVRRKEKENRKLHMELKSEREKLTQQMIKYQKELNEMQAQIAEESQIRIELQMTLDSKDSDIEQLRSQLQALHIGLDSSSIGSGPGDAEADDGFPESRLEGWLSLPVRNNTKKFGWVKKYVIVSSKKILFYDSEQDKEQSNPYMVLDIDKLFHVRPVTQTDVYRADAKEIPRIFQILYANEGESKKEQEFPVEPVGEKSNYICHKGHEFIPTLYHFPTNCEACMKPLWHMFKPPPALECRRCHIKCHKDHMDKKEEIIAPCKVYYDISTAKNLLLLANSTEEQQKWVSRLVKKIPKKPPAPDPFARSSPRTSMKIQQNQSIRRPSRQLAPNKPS", "assay": "Inhibition of ROCK Kinase Activity", "units": {"Ki": "nM"}, "values": [{"smiles": "COc1ccc(NCC(=O)Nc2ccc3c(c2)C(=O)NC3=O)cc1Cl", "Ki": "≤ 2000"}, {"smiles": "O=C(CSc1ccccc1F)Nc1ccc2c(c1)C(=O)NC2=O", "Ki": "≤ 2000"}, {"smiles": "O=C(CSc1ccccc1C(F)(F)F)Nc1ccc2c(c1)C(=O)NC2=O", "Ki": "≤ 2000"}, {"smiles": "O=C(Cc1cc2c(cc1Cl)OCO2)Nc1ccc2c(c1)C(=O)NC2=O", "Ki": "≤ 2000"}, {"smiles": "O=C(Cc1ccc(F)cc1Cl)Nc1ccc2c(c1)C(=O)NC2=O", "Ki": "≤ 2000"}, {"smiles": "O=C(CCc1ccccc1)Nc1ccc2c(c1)C(=O)NC2=O", "Ki": "≤ 2000"}, {"smiles": "O=C(Cc1cccc(C(F)(F)F)c1F)Nc1ccc2c(c1)C(=O)NC2=O", "Ki": "≤ 2000"}, {"smiles": "O=C(CNc1cccc(F)c1)Nc1ccc2c(c1)C(=O)NC2=O", "Ki": "≤ 2000"}, {"smiles": "O=C(CSc1ccc(F)cc1F)Nc1ccc2c(c1)C(=O)NC2=O", "Ki": "≤ 2000"}, {"smiles": "Cc1cccc(NCC(=O)Nc2ccc3c(c2)C(=O)NC3=O)c1", "Ki": "≤ 2000"}, {"smiles": "O=C(Cc1ccc(Cl)c(Cl)c1)Nc1ccc2c(c1)C(=O)NC2=O", "Ki": "≤ 2000"}, {"smiles": "COc1cccc(OCC(=O)Nc2ccc3c(c2)C(=O)NC3=O)c1", "Ki": "≤ 2000"}, {"smiles": "Cc1ccc(OCC(=O)Nc2ccc3c(c2)C(=O)NC3=O)cc1", "Ki": "≤ 2000"}, {"smiles": "O=C(CSc1cccc(Cl)c1Cl)Nc1ccc2c(c1)C(=O)NC2=O", "Ki": "≤ 2000"}, {"smiles": "O=C(CSc1cccc(O)c1)Nc1ccc2c(c1)C(=O)NC2=O", "Ki": "≤ 2000"}, {"smiles": "O=C(Cc1cc(F)cc(F)c1F)Nc1ccc2c(c1)C(=O)NC2=O", "Ki": "≤ 2000"}, {"smiles": "COc1ccc(CC(=O)Nc2ccc3c(c2)C(=O)NC3=O)cc1", "Ki": "≤ 2000"}, {"smiles": "Cc1cc(C)cc(SCC(=O)Nc2ccc3c(c2)C(=O)NC3=O)c1", "Ki": "≤ 2000"}, {"smiles": "O=C(CSc1cccc(Cl)c1)Nc1ccc2c(c1)C(=O)NC2=O", "Ki": "≤ 2000"}, {"smiles": "O=C(CNc1cccc(Cl)c1)Nc1ccc2c(c1)C(=O)NC2=O", "Ki": "≤ 2000"}, {"smiles": "O=C(Cc1cccc(F)c1)Nc1ccc2c(c1)C(=O)NC2=O", "Ki": "≤ 2000"}, {"smiles": "O=C(Cc1cccc(C(F)(F)F)c1)Nc1ccc2c(c1)C(=O)NC2=O", "Ki": "≤ 2000"}, {"smiles": "O=C(CSc1cccc(Br)c1)Nc1ccc2c(c1)C(=O)NC2=O", "Ki": "≤ 2000"}, {"smiles": "Cc1ccc(SCC(=O)Nc2ccc3c(c2)C(=O)NC3=O)cc1", "Ki": "≤ 2000"}, {"smiles": "COc1cccc(CC(=O)Nc2ccc3c(c2)C(=O)NC3=O)c1", "Ki": "≤ 2000"}, {"smiles": "O=C(COc1ccc(Cl)cc1)Nc1ccc2c(c1)C(=O)NC2=O", "Ki": "≤ 2000"}, {"smiles": "O=C(CSc1cccc2ccccc12)Nc1ccc2c(c1)C(=O)NC2=O", "Ki": "≤ 2000"}, {"smiles": "O=C(Cc1cc(F)ccc1F)Nc1ccc2c(c1)C(=O)NC2=O", "Ki": "≤ 2000"}, {"smiles": "CC(Oc1ccccc1)C(=O)Nc1ccc2c(c1)C(=O)NC2=O", "note": "(stereo not given)", "Ki": "≤ 2000"}, {"smiles": "O=C(Cc1ccc(F)cc1F)Nc1ccc2c(c1)C(=O)NC2=O", "Ki": "≤ 2000"}, {"smiles": "O=C(CNc1ccc(F)c(Cl)c1)Nc1ccc2c(c1)C(=O)NC2=O", "Ki": "≤ 2000"}, {"smiles": "O=C(Cc1ccccc1F)Nc1ccc2c(c1)C(=O)NC2=O", "Ki": "≤ 2000"}, {"smiles": "O=C(Cc1cc(Cl)ccc1F)Nc1ccc2c(c1)C(=O)NC2=O", "Ki": "≤ 2000"}, {"smiles": "Cc1ccc(SCC(=O)Nc2ccc3c(c2)C(=O)NC3=O)c(C)c1", "Ki": "≤ 2000"}, {"smiles": "O=C(CSc1ccc(Cl)cc1Cl)Nc1ccc2c(c1)C(=O)NC2=O", "Ki": "≤ 2000"}, {"smiles": "O=C(CSc1ccccc1)Nc1ccc2c(c1)C(=O)NC2=O", "Ki": "≤ 2000"}, {"smiles": "O=C(CSc1ccccc1Cl)Nc1ccc2c(c1)C(=O)NC2=O", "Ki": "≤ 2000"}, {"smiles": "Cc1ccc(NCC(=O)Nc2ccc3c(c2)C(=O)NC3=O)c(C)c1", "Ki": "≤ 2000"}, {"smiles": "O=C(COc1ccccc1)Nc1ccc2c(c1)C(=O)NC2=O", "Ki": "≤ 2000"}, {"smiles": "Cc1ccccc1NCC(=O)Nc1ccc2c(c1)C(=O)NC2=O", "Ki": "≤ 2000"}, {"smiles": "O=C(Cc1ccccc1Cl)Nc1ccc2c(c1)C(=O)NC2=O", "Ki": "≤ 2000"}, {"smiles": "COc1cccc(NCC(=O)Nc2ccc3c(c2)C(=O)NC3=O)c1", "Ki": "≤ 2000"}, {"smiles": "O=C(CSc1ccc(F)cc1)Nc1ccc2c(c1)C(=O)NC2=O", "Ki": "≤ 2000"}, {"smiles": "O=C(Cc1ccc(F)cc1)Nc1ccc2c(c1)C(=O)NC2=O", "Ki": "≤ 2000"}, {"smiles": "O=C(Cc1cccc(O)c1)Nc1ccc2c(c1)C(=O)NC2=O", "Ki": "≤ 2000"}, {"smiles": "O=C(Cc1cc(F)c(Cl)cc1Cl)Nc1ccc2c(c1)C(=O)NC2=O", "Ki": "≤ 2000"}, {"smiles": "O=C(CNc1cccc(OCc2ccccc2)c1)Nc1ccc2c(c1)C(=O)NC2=O", "Ki": "≤ 2000"}, {"smiles": "O=C(CNc1cccc2c1CCCC2)Nc1ccc2c(c1)C(=O)NC2=O", "Ki": "≤ 2000"}, {"smiles": "O=C(Cc1cccc(F)c1F)Nc1ccc2c(c1)C(=O)NC2=O", "Ki": "≤ 2000"}, {"smiles": "O=C(Cc1ccc2c(c1)OCO2)Nc1ccc2c(c1)C(=O)NC2=O", "Ki": "≤ 2000"}, {"smiles": "O=C(CSc1ccc(F)c(Cl)c1)Nc1ccc2c(c1)C(=O)NC2=O", "Ki": "≤ 2000"}, {"smiles": "O=C(Cc1ccc(Cl)cc1)Nc1ccc2c(c1)C(=O)NC2=O", "Ki": "≤ 2000"}, {"smiles": "O=C(Cc1cccc(Cl)c1)Nc1ccc2c(c1)C(=O)NC2=O", "Ki": "≤ 2000"}, {"smiles": "O=C(CSc1ccc(Cl)c(Cl)c1)Nc1ccc2c(c1)C(=O)NC2=O", "Ki": "≤ 2000"}, {"smiles": "O=C(CNc1cccc2[nH]ccc12)Nc1ccc2c(c1)C(=O)NC2=O", "Ki": "≤ 2000"}]}]}
